Test results published in ChEMBL document CHEMBL4219258, “Determination of absolute configuration and binding efficacy of benzimidazole-based FabI inhibitors through the support of electronic circular dichroism and MM-GBSA techniques” (Bioorg Med Chem Lett, 2018).

Test: Inhibition of Francisella tularensis FabI

Row | SMILES | IC50 [µM]
1 | C[C@@H](c1ccc(Cl)c(Cl)c1)n1cnc2cc3c(cc21)CCCC3 | 0.014
2 | C[C@H](c1ccc(Cl)c(Cl)c1)n1cnc2cc3c(cc21)CCCC3 | 7.8
3 | C[C@H](c1ccc(Cl)c(Cl)c1)n1cnc2cc3c(cc21)CCC3 | 1.84
4 | C[C@@H](c1ccc(Cl)c(Cl)c1)n1cnc2cc3c(cc21)CCC3 | 0.016
